Measured values from patent publication US20170049716A1, “NITISINONE DOSING REGIMENS FOR THE TREATMENT OF ALKAPTONURIA” (Swedish Orphan Biovitrum International AB, priority 2014, published 2017).

Assays:
homogentisic acid (HGA) [1] = assay: Urinary excretion of HGA over 24 hours (u-HGA24), dose-response study in patients with AKU; format: in vivo, human; conditions: for Relative decrease in u-HGA24, max / Relative decrease in u-HGA24, mean / Relative decrease in u-HGA24, median / Relative decrease in u-HGA24, min: baseline to week 4, N = 8
Description: A randomized, open-label, parallel-group dose-response study with a no-treatment control group was performed. Patients with AKU were randomized to receive either 1 mg, 2 mg, 4 mg or 8 mg nitisinone once daily (oral administration) or no treatment (control). Forty patients were randomized, equally distributed amongst the five groups (8 patients per group). Nitisinone was administered as an oral suspension containing 4 mg/mL. The following dose volumes were administered once daily, in the morning: Urinary excretion of HGA over a 24-hour period (u-HGA24) was assessed at weeks 0, 2 and 4. Urine was collected into 2.5-L bottles containing 30 mL of 5N H2SO4. The exact length of the collection interval and the volume of the collected urine were recorded. The concentration of HGA in the urine was measured by liquid chromatography tandem mass spectrometry (LCMSMS). The 24-hour excretion of HGA was calculated by multiplying the concentration with the volume of the collected urine, and correcting for any deviation from a 24-hour collection period. (There were no reports of missed samples within the collection interval.)

homogentisic acid (HGA) [2] = assay: Serum HGA (s-HGA) 24-hour profile, dose-response study in patients with AKU; format: in vivo, human; conditions: for Patients with no quantifiable serum HGA concentration in any sample over the 24-hour dosage interval: group of 8 patients, LLOQ 3.1 μmol/L
Description: A randomized, open-label, parallel-group dose-response study with a no-treatment control group was performed. Patients with AKU were randomized to receive either 1 mg, 2 mg, 4 mg or 8 mg nitisinone once daily (oral administration) or no treatment (control). Forty patients were randomized, equally distributed amongst the five groups (8 patients per group). Nitisinone was administered as an oral suspension containing 4 mg/mL. The following dose volumes were administered once daily, in the morning: Measurements of serum HGA (s-HGA) and tyrosine (s-Tyr) concentrations were performed at weeks 0, 2 and 4. At all visits a full 24-hour profile was determined at the following time-points: pre-dose (immediately after breakfast) and 0.5, 1,2, 3, 4, 6, 8, 10, 12, 15, 18,24 hours post-dose. The concentrations of HGA and tyrosine in the serum were measured by liquid chromatography tandem mass spectrometry (LCMSMS). The lower limit of quantification (LLOQ) for HGA was 3.1 μmol/L. Maximum and daily average serum concentrations of HGA and tyrosine were determined. The daily average concentrations were determined by dividing the area under the concentration vs. time curves, calculated by means of the trapezoidal rule, by 24.

homogentisic acid (HGA) [3] = conditions: 2 mg/day, 36 months, AKU patients; cited from earlier work
patients with AKU = conditions: 2 mg/day, 36 months; cited from earlier work
tyrosine = conditions: 2 mg daily, 20 patients, no diet restrictions, 3-year study; cited from earlier work
patients with HT-1 = conditions: cited from earlier work
[4] = 1 mg once daily oral, Week 0 (baseline), N = 8
[5] = 1 mg once daily oral, Week 4, N = 8
[6] = 2 mg once daily oral, Week 0 (baseline), N = 8
[7] = 2 mg once daily oral, Week 4, N = 8
[8] = 4 mg once daily oral, Week 0 (baseline), N = 8
[9] = 4 mg once daily oral, Week 4, N = 8
[10] = 8 mg once daily oral, Week 0 (baseline), N = 8
[11] = 8 mg once daily oral, Week 4, N = 8

O=C1CCCC(=O)C1C(=O)c1ccc(C(F)(F)F)cc1[N+](=O)[O-] [nitisinone, 2-[2-nitro-4-(trifluoromethyl)benzoyl]-1,3-cyclohexanedione]
u-HGA24, max (homogentisic acid (HGA) [1]; [4]): 69502.9 μmol/24h | u-HGA24, mean (homogentisic acid (HGA) [1]; [4]): 36757.0 μmol/24h | u-HGA24, median (homogentisic acid (HGA) [1]; [4]): 34034.4 μmol/24h | u-HGA24, min (homogentisic acid (HGA) [1]; [4]): 20743.4 μmol/24h | u-HGA24, max (homogentisic acid (HGA) [1]; [5]): 6752.8 μmol/24h | u-HGA24, mean (homogentisic acid (HGA) [1]; [5]): 3931.0 μmol/24h | u-HGA24, median (homogentisic acid (HGA) [1]; [5]): 3415.6 μmol/24h | u-HGA24, min (homogentisic acid (HGA) [1]; [5]): 1847.6 μmol/24h | Relative decrease in u-HGA24, max (homogentisic acid (HGA) [1]; 1 mg once daily oral): 91.05% | Relative decrease in u-HGA24, mean (homogentisic acid (HGA) [1]; 1 mg once daily oral): 88.72% | Relative decrease in u-HGA24, median (homogentisic acid (HGA) [1]; 1 mg once daily oral): 87.99% | u-HGA24, max (homogentisic acid (HGA) [1]; [6]): 40747.2 μmol/24h | u-HGA24, mean (homogentisic acid (HGA) [1]; [6]): 31439.8 μmol/24h | u-HGA24, median (homogentisic acid (HGA) [1]; [6]): 31754.7 μmol/24h | u-HGA24, min (homogentisic acid (HGA) [1]; [6]): 19994.2 μmol/24h | u-HGA24, max (homogentisic acid (HGA) [1]; [7]): 3484.1 μmol/24h | u-HGA24, mean (homogentisic acid (HGA) [1]; [7]): 1602.5 μmol/24h | u-HGA24, median (homogentisic acid (HGA) [1]; [7]): 1515.6 μmol/24h | u-HGA24, min (homogentisic acid (HGA) [1]; [7]): 627.0 μmol/24h | Relative decrease in u-HGA24, max (homogentisic acid (HGA) [1]; 2 mg once daily oral): 96.86% | Relative decrease in u-HGA24, mean (homogentisic acid (HGA) [1]; 2 mg once daily oral): 94.78% | Relative decrease in u-HGA24, median (homogentisic acid (HGA) [1]; 2 mg once daily oral): 95.64% | Relative decrease in u-HGA24, min (homogentisic acid (HGA) [1]; 2 mg once daily oral): 89.08% | u-HGA24 (homogentisic acid (HGA) [1]; 2 mg or higher per day, with one exception): less than 2000 μmol | u-HGA24, max (homogentisic acid (HGA) [1]; [8]): 55393.9 μmol/24h | u-HGA24, mean (homogentisic acid (HGA) [1]; [8]): 35453.4 μmol/24h | u-HGA24, median (homogentisic acid (HGA) [1]; [8]): 31502.7 μmol/24h | u-HGA24, min (homogentisic acid (HGA) [1]; [8]): 14442.9 μmol/24h | u-HGA24, max (homogentisic acid (HGA) [1]; [9]): 1478.4 μmol/24h | u-HGA24, mean (homogentisic acid (HGA) [1]; [9]): 733.8 μmol/24h | u-HGA24, median (homogentisic acid (HGA) [1]; [9]): 790.5 μmol/24h | u-HGA24, min (homogentisic acid (HGA) [1]; [9]): 164.2 μmol/24h | Relative decrease in u-HGA24, max (homogentisic acid (HGA) [1]; 4 mg once daily oral): 99.41% | Relative decrease in u-HGA24, mean (homogentisic acid (HGA) [1]; 4 mg once daily oral): 98.15% | Relative decrease in u-HGA24, median (homogentisic acid (HGA) [1]; 4 mg once daily oral): 98.19% | Relative decrease in u-HGA24, min (homogentisic acid (HGA) [1]; 4 mg once daily oral): 96.74% | u-HGA24, max (homogentisic acid (HGA) [1]; [10]): 32896.6 μmol/24h | u-HGA24, mean (homogentisic acid (HGA) [1]; [10]): 27353.5 μmol/24h | u-HGA24, median (homogentisic acid (HGA) [1]; [10]): 28728.7 μmol/24h | u-HGA24, min (homogentisic acid (HGA) [1]; [10]): 17075.1 μmol/24h | u-HGA24, max (homogentisic acid (HGA) [1]; [11]): 223.0 μmol/24h | u-HGA24, mean (homogentisic acid (HGA) [1]; [11]): 146.3 μmol/24h | u-HGA24, median (homogentisic acid (HGA) [1]; [11]): 140.4 μmol/24h | u-HGA24, min (homogentisic acid (HGA) [1]; [11]): 83.1 μmol/24h | Relative decrease in u-HGA24, max (homogentisic acid (HGA) [1]; 8 mg once daily oral): 99.70% | Relative decrease in u-HGA24, mean (homogentisic acid (HGA) [1]; 8 mg once daily oral): 99.41% | Relative decrease in u-HGA24, median (homogentisic acid (HGA) [1]; 8 mg once daily oral): 99.52% | Relative decrease in u-HGA24, min (homogentisic acid (HGA) [1]; 8 mg once daily oral): 98.69% | Decrease of urinary excretion of HGA (up to) (homogentisic acid (HGA) [1]; 8 mg per day (highest dose)): > 99% | Suppression of the formation of HGA, estimated (homogentisic acid (HGA) [1]; 10 mg per day, estimated): almost completely | Decrease of u-HGA in a majority of patients, estimated by extrapolation (homogentisic acid (HGA) [1]; 15 mg per day, extrapolation): about 99.9% | Suppression of the formation of HGA (homogentisic acid (HGA) [1]; considerably higher doses than previously used in alkaptonuria): more than 99% | u-HGA24 of one patient (homogentisic acid (HGA) [1]; one patient on 2 mg, week 4): 3484 µmol | Daily average serum concentration of HGA, max (homogentisic acid (HGA) [2]; [4]): 44.1 µmol/L | Daily average serum concentration of HGA, mean (homogentisic acid (HGA) [2]; [4]): 34.2 µmol/L | Daily average serum concentration of HGA, median (homogentisic acid (HGA) [2]; [4]): 33.0 µmol/L | Daily average serum concentration of HGA, min (homogentisic acid (HGA) [2]; [4]): 25.5 µmol/L | Daily average serum concentration of HGA, max (homogentisic acid (HGA) [2]; [5]): 7.3 µmol/L | Daily average serum concentration of HGA, mean (homogentisic acid (HGA) [2]; [5]): 4.1 µmol/L | Daily average serum concentration of HGA, median (homogentisic acid (HGA) [2]; [5]): 3.9 µmol/L | Daily average serum concentration of HGA, min (homogentisic acid (HGA) [2]; [5]): 3.1 µmol/L | Daily average serum concentration of HGA, max (homogentisic acid (HGA) [2]; [6]): 59.1 µmol/L | Daily average serum concentration of HGA, mean (homogentisic acid (HGA) [2]; [6]): 36.6 µmol/L | Daily average serum concentration of HGA, median (homogentisic acid (HGA) [2]; [6]): 34.2 µmol/L | Daily average serum concentration of HGA, min (homogentisic acid (HGA) [2]; [6]): 25.1 µmol/L | Daily average serum concentration of HGA, max (homogentisic acid (HGA) [2]; [7]): 5.8 µmol/L | Daily average serum concentration of HGA, median (homogentisic acid (HGA) [2]; [7]): <3.1 µmol/L | Daily average serum concentration of HGA, min (homogentisic acid (HGA) [2]; [7]): <3.1 µmol/L | Patients with no quantifiable serum HGA concentration in any sample over the 24-hour dosage interval (homogentisic acid (HGA) [2]; 2 mg): 3 | Daily average serum concentration of HGA, max (homogentisic acid (HGA) [2]; [8]): 49.9 µmol/L | Daily average serum concentration of HGA, mean (homogentisic acid (HGA) [2]; [8]): 38.5 µmol/L | Daily average serum concentration of HGA, median (homogentisic acid (HGA) [2]; [8]): 37.7 µmol/L | Daily average serum concentration of HGA, min (homogentisic acid (HGA) [2]; [8]): 28.9 µmol/L | Daily average serum concentration of HGA, max (homogentisic acid (HGA) [2]; [9]): <3.1 µmol/L | Daily average serum concentration of HGA, median (homogentisic acid (HGA) [2]; [9]): <3.1 µmol/L | Daily average serum concentration of HGA, min (homogentisic acid (HGA) [2]; [9]): <3.1 µmol/L | Patients with no quantifiable serum HGA concentration in any sample over the 24-hour dosage interval (homogentisic acid (HGA) [2]; 4 mg): 4 | Daily average serum concentration of HGA, max (homogentisic acid (HGA) [2]; [10]): 47.7 µmol/L | Daily average serum concentration of HGA, mean (homogentisic acid (HGA) [2]; [10]): 36.6 µmol/L | Daily average serum concentration of HGA, median (homogentisic acid (HGA) [2]; [10]): 38.6 µmol/L | Daily average serum concentration of HGA, min (homogentisic acid (HGA) [2]; [10]): 25.2 µmol/L | Daily average serum concentration of HGA, median (homogentisic acid (HGA) [2]; [11]): <3.1 µmol/L | Daily average serum concentration of HGA, min (homogentisic acid (HGA) [2]; [11]): <3.1 µmol/L | Patients with no quantifiable serum HGA concentration in any sample over the 24-hour dosage interval (homogentisic acid (HGA) [2]; 8 mg): 7 | Reduction of urinary excretion on average, compared to pre-treatment levels (homogentisic acid (HGA) [3]): about 95% | Effect on primary efficacy variable, hip rotation (patients with AKU): failed to show an effect | Tyrosine levels, average (tyrosine): 800 µM | Tyrosine levels, range (tyrosine): 332 to 1528 µM | IQ of treated children versus unaffected siblings (patients with HT-1; children treated with nitisinone (Bendadi et al.)): considerably lower | Cognitive impairment causing schooling difficulties, patients affected (patients with HT-1; school-age patients with HT-1 treated with nitisinone (Masurel-Paulet et al.)): eight out of 23
